System: LNCaP/AR(cs) cells
Experiment: Endogenous gene transcriptional assay (real-time PCR of androgen responsive genes);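 on ORM1 expression, agonist transcription: LNCaP/AR(cs) cells without added R1881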;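 on PLD1 expression, agonist transcription: LNCaP/AR(cs) cells without added R1881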;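 on PSA expression, agonist transcription: LNCaP/AR(cs) cells without added R1881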;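 on SLUG expression, agonist transcription: LNCaP/AR(cs) cells without added R1881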;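 on TMPRSS2 expression, agonist transcription: LNCaP/AR(cs) cells without added R1881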
Format: cell-based, human
[1] = Table 4A, 1 nM R1881 or 30 μM compound, vehicle=1.00

Procedure: Total RNA was isolated using the Aurum™ total RNA isolation kit (BIO-RAD, Hercules, Calif.). RNA (1 μg) was reverse transcribed using the iScript cDNA synthesis kit (BIO-RAD, Hercules, Calif.) to produce cDNA. Real-time PCR was performed using the Applied Biosystems 7900HT instrument and SYBR Green PCR Master Mix (Applied Biosystems, Foster City, Calif.). PCR reactions were performed in 6 μL according to the manufacturer's protocol and a thermocycle protocol of 95° C. for 10 minutes followed by 40 cycles of 95° C. for 15 seconds and 58° C. for 1 minute. Androgen responsive gene (PSA, SLUG, TMPRSS2, STEAP4, FKBP5, ORM1, NOV, FASN, NKX3.1, AMIGO2, BDNF, CAMK2N1, HPGD, NCAPD3, PLD1) expression was normalized to GAPDH expression and expressed relative to vehicle treatment of the parental cell line.
Gene expression was normalized to GAPDH as described above.

CNC(=O)c1ccc(N2C(=S)N(c3ccc(C#N)c(C(F)(F)F)c3)C(=O)C2(C)C)cc1F [Enzalutamide, enzalutamide]
ORM1 expression, antagonist transcription (+1 nM R1881, 30 μM): 22.70 | PLD1 expression, antagonist transcription (+1 nM R1881, 30 μM): 0.54 | PSA expression, antagonist transcription (+1 nM R1881, 30 μM): 5.65 | SLUG expression, antagonist transcription (+1 nM R1881, 30 μM): 5.22 | STEAP4 expression, antagonist transcription (+1 nM R1881, 30 μM): 7.79 | TMPRSS2 expression, antagonist transcription (+1 nM R1881, 30 μM): 4.62 | FASN gene expression [1]: 1.19 | FKBP5 gene expression [1]: 1.71 | HPGD gene expression [1]: 2.01 | NKX3.1 gene expression [1]: 2.51 | ORM1 gene expression [1]: 3.58 | PLD1 gene expression [1]: 0.65 | PSA gene expression [1]: 2.69 | SLUG gene expression [1]: 2.06 | TMPRSS2 gene expression [1]: 2.36 | AMIGO2 expression, agonist transcription (−R1881, 0.3 μM): 0.68 | CAM2KN1 expression, agonist transcription (−R1881, 0.3 μM): 0.80 | FASN expression, agonist transcription (−R1881, 0.3 μM): 0.47 | FKBP5 expression, agonist transcription (−R1881, 0.3 μM): 0.91 | HPGD expression, agonist transcription (−R1881, 0.3 μM): 0.74 | NCAPD3 expression, agonist transcription (−R1881, 0.3 μM): 0.66 | NKX3.1 expression, agonist transcription (−R1881, 0.3 μM): 0.71 | NOV expression, agonist transcription (−R1881, 0.3 μM): 1.12 | ORM1 expression, agonist transcription (−R1881, 0.3 μM): 0.92 | PLD1 expression, agonist transcription (−R1881, 0.3 μM): 0.77 | PSA expression, agonist transcription (−R1881, 0.3 μM): 0.42 | SLUG expression, agonist transcription (−R1881, 0.3 μM): 0.53 | STEAP4 expression, agonist transcription (−R1881, 0.3 μM): 0.75 | TMPRSS2 expression, agonist transcription (−R1881, 0.3 μM): 0.75 | AMIGO2 expression, agonist transcription (−R1881, 1 μM): 0.61 | BDNF expression, agonist transcription (−R1881, 1 μM): 0.92 | CAM2KN1 expression, agonist transcription (−R1881, 1 μM): 0.70 | FASN expression, agonist transcription (−R1881, 1 μM): 0.32 | FKBP5 expression, agonist transcription (−R1881, 1 μM): 0.62 | HPGD expression, agonist transcription (−R1881, 1 μM): 0.57 | NCAPD3 expression, agonist transcription (−R1881, 1 μM): 0.57 | NKX3.1 expression, agonist transcription (−R1881, 1 μM): 0.52 | NOV expression, agonist transcription (−R1881, 1 μM): 0.91 | ORM1 expression, agonist transcription (−R1881, 1 μM): 0.90 | PLD1 expression, agonist transcription (−R1881, 1 μM): 0.62 | PSA expression, agonist transcription (−R1881, 1 μM): 0.32 | SLUG expression, agonist transcription (−R1881, 1 μM): 0.55 | STEAP4 expression, agonist transcription (−R1881, 1 μM): 0.73 | TMPRSS2 expression, agonist transcription (−R1881, 1 μM): 0.53 | AMIGO2 expression, agonist transcription (−R1881, 3 μM): 0.62 | BDNF expression, agonist transcription (−R1881, 3 μM): 0.88 | CAM2KN1 expression, agonist transcription (−R1881, 3 μM): 0.71 | FASN expression, agonist transcription (−R1881, 3 μM): 0.29 | FKBP5 expression, agonist transcription (−R1881, 3 μM): 0.75 | HPGD expression, agonist transcription (−R1881, 3 μM): 0.61 | NCAPD3 expression, agonist transcription (−R1881, 3 μM): 0.47 | NKX3.1 expression, agonist transcription (−R1881, 3 μM): 0.51 | NOV expression, agonist transcription (−R1881, 3 μM): 0.80 | ORM1 expression, agonist transcription (−R1881, 3 μM): 1.06 | PLD1 expression, agonist transcription (−R1881, 3 μM): 0.63 | PSA expression, agonist transcription (−R1881, 3 μM): 0.38 | SLUG expression, agonist transcription (−R1881, 3 μM): 0.31 | STEAP4 expression, agonist transcription (−R1881, 3 μM): 0.52 | TMPRSS2 expression, agonist transcription (−R1881, 3 μM): 0.63 | AMIGO2 expression, agonist transcription (−R1881, 10 μM): 0.66 | BDNF expression, agonist transcription (−R1881, 10 μM): 0.95 | CAM2KN1 expression, agonist transcription (−R1881, 10 μM): 0.64 | FASN expression, agonist transcription (−R1881, 10 μM): 0.31 | FKBP5 expression, agonist transcription (−R1881, 10 μM): 0.61 | HPGD expression, agonist transcription (−R1881, 10 μM): 0.63 | NCAPD3 expression, agonist transcription (−R1881, 10 μM): 0.56 | NKX3.1 expression, agonist transcription (−R1881, 10 μM): 0.86 | ORM1 expression, agonist transcription (−R1881, 10 μM): 0.71 | PLD1 expression, agonist transcription (−R1881, 10 μM): 0.56 | PSA expression, agonist transcription (−R1881, 10 μM): 0.74 | SLUG expression, agonist transcription (−R1881, 10 μM): 0.51 | STEAP4 expression, agonist transcription (−R1881, 10 μM): 1.16 | TMPRSS2 expression, agonist transcription (−R1881, 10 μM): 0.89 | CAM2KN1 expression, agonist transcription (−R1881, 30 μM): 0.64 | FKBP5 expression, agonist transcription (−R1881, 30 μM): 0.85 | NCAPD3 expression, agonist transcription (−R1881, 30 μM): 0.79 | NKX3.1 expression, agonist transcription (−R1881, 30 μM): 1.63 | ORM1 expression, agonist transcription (−R1881, 30 μM): 2.02 | PLD1 expression, agonist transcription (−R1881, 30 μM): 0.56 | PSA expression, agonist transcription (−R1881, 30 μM): 1.60 | SLUG expression, agonist transcription (−R1881, 30 μM): 0.91 | TMPRSS2 expression, agonist transcription (−R1881, 30 μM): 1.45

From patent US9617602B2, “Methods and compositions for determining resistance to androgen receptor therapy” (Aragon Pharmaceuticals, Inc., priority 2012, dated 2017)
